Reference: ChEMBL document CHEMBL4387741, “Optimization of novel reversible Bruton's tyrosine kinase inhibitors identified using Tethering-fragment-based screens” (Bioorg Med Chem, 2019)

Columns and labels:
[1] = target: Activin receptor type-2B (Homo sapiens) (UniProt Q13705); assay: Inhibition of wild-type human ACVR2B (H169 to D504 residues) expressed in bacterial expression system at 1 uM by Kinomescan method relative to control
[2] = target: Dual specificity protein kinase TTK (Homo sapiens) (UniProt P33981); assay: Inhibition of wild-type human partial length TTK (N505 to V798 residues) expressed in bacterial expression system at 1 uM by Kinomescan method relative to control
[3] = test system: Hepatocyte growth factor receptor (Homo sapiens), P08581 [M1250T]; assay: Inhibition of human partial length MET M1250T mutant (D1010 to S1367 residues) expressed in bacterial expression system at 1 uM by Kinomescan method relative to control
[4] = target: Serine/threonine-protein kinase 32A (Homo sapiens) (UniProt Q8WU08); assay: Inhibition of wild-type human full length YANK1 (M1 to L396 residues) expressed in mammalian expression system at 1 uM by Kinomescan method relative to control
[5] = target: Receptor tyrosine-protein kinase erbB-4 (Homo sapiens) (UniProt Q15303); assay: Inhibition of wild-type human partial length ERBB4 (L690 to K994 residues) expressed in bacterial expression system at 1 uM by Kinomescan method relative to control
[6] = target: Muscle, skeletal receptor tyrosine-protein kinase (Homo sapiens) (UniProt O15146); assay: Inhibition of wild-type human partial length MUSK (M553 to V869 residues) expressed in bacterial expression system at 1 uM by Kinomescan method relative to control
[7] = test system: Epidermal growth factor receptor (Homo sapiens), P00533 [G719C]; assay: Inhibition of human partial length EGFR G719C mutant (R669 to V1011 residues) expressed in bacterial expression system at 1 uM by Kinomescan method relative to control
[8] = target: Cyclin-dependent kinase 13 (Homo sapiens) (UniProt Q14004); assay: Inhibition of wild-type human partial length CDC2L5 (H675 to S1054 residues) expressed in mammalian expression system at 1 uM by Kinomescan method relative to control
[9] = target: Mitogen-activated protein kinase kinase kinase kinase 5 (Homo sapiens) (UniProt Q9Y4K4); assay: Inhibition of wild-type human partial length MAP4K5 (M1 to P297 residues) expressed in bacterial expression system at 1 uM by Kinomescan method relative to control
[10] = target: Calcium/calmodulin-dependent protein kinase type 1D (Homo sapiens) (UniProt Q8IU85); assay: Inhibition of wild-type human partial length CAMK1D (M1 to K299 residues) expressed in bacterial expression system at 1 uM by Kinomescan method relative to control
[11] = target: Inhibitor of nuclear factor kappa-B kinase subunit alpha (Homo sapiens) (UniProt O15111); assay: Inhibition of wild-type human full length IKK-alpha (M1 to E745 residues) expressed in mammalian expression system at 10 uM by Kinomescan method relative to control
[12] = target: Myosin light chain kinase 2, skeletal/cardiac muscle (Homo sapiens) (UniProt Q9H1R3); assay: Inhibition of wild-type human partial length MYLK2 (D258 to K570 residues) expressed in bacterial expression system at 10 uM by Kinomescan method relative to control
[13] = target: Serine/threonine-protein kinase PLK3 (Homo sapiens) (UniProt Q9H4B4); assay: Inhibition of wild-type human partial length PLK3 (A42 to L334 residues) expressed in mammalian expression system at 10 uM by Kinomescan method relative to control
[14] = target: Serine/threonine-protein kinase PAK 3 (Homo sapiens) (UniProt O75914); assay: Inhibition of wild-type human full length PAK3 (M1 to R544 residues) expressed in bacterial expression system at 10 uM by Kinomescan method relative to control
[15] = test system: Tyrosine-protein kinase ABL1 (Homo sapiens), P00519 [F317L]; assay: Inhibition of human non-phosphorylated ABL1 F317L mutant (S229 to K512 residues) expressed in mammalian expression system at 10 uM by Kinomescan method relative to control
[16] = target: Tyrosine-protein kinase JAK3 (Homo sapiens) (UniProt P52333); assay: Inhibition of wild-type human partial length JAK3 JH1 catalytic domain (I781 to S1124 residues) expressed in mammalian expression system at 10 uM by Kinomescan method relative to control
[17] = test system: eIF-2-alpha kinase GCN2 (Homo sapiens), Q9P2K8 [S808G]; assay: Inhibition of wild-type human partial length GCN2 S808G mutant kinase domain 2 (R585 to T1018 residues) expressed in bacterial expression system at 10 uM by Kinomescan method relative to control
[18] = target: Insulin receptor (Homo sapiens) (UniProt P06213); assay: Inhibition of wild-type human partial length INSR (P997 to E1318 residues) expressed in mammalian expression system at 10 uM by Kinomescan method relative to control
[19] = target: Mitogen-activated protein kinase 8 (Homo sapiens) (UniProt P45983); assay: Inhibition of wild-type human full length JNK1 (M1 to Q384 residues) expressed in mammalian expression system at 10 uM by Kinomescan method relative to control
[20] = target: Tyrosine-protein kinase JAK1 (Homo sapiens) (UniProt P23458); assay: Inhibition of wild-type human partial length JAK1 JH2 pseudokinase domain (R537 to D855 residues) expressed in mammalian expression system at 10 uM by Kinomescan method relative to control
[21] = target: Serine/threonine-protein kinase Nek6 (Homo sapiens) (UniProt Q9HC98); assay: Inhibition of wild-type human full length NEK6 (M8 to T313 residues) expressed in bacterial expression system at 10 uM by Kinomescan method relative to control
[22] = target: Receptor tyrosine-protein kinase erbB-4 (Homo sapiens) (UniProt Q15303); assay: Inhibition of wild-type human partial length ERBB4 (L690 to K994 residues) expressed in bacterial expression system at 10 uM by Kinomescan method relative to control
[23] = target: Casein kinase I isoform gamma-1 (Homo sapiens) (UniProt Q9HCP0); assay: Inhibition of wild-type human partial length CSNK1G1 (T15 to S353 residues) expressed in bacterial expression system at 10 uM by Kinomescan method relative to control
[24] = target: Ephrin type-A receptor 3 (Homo sapiens) (UniProt P29320); assay: Inhibition of wild-type human partial length EPHA3 (D604 to K889 residues) expressed in bacterial expression system at 10 uM by Kinomescan method relative to control
[25] = test system: ALK tyrosine kinase receptor (Homo sapiens), Q9UM73 [L1196M]; assay: Inhibition of wild-type human partial length ALK L1196M mutant (I1088 to E1409 residues) expressed in mammalian expression system at 10 uM by Kinomescan method relative to control
[26] = target: TRAF2 and NCK-interacting protein kinase (Homo sapiens) (UniProt Q9UKE5); assay: Inhibition of wild-type human partial length TNIK (D4 to K311 residues) expressed in bacterial expression system at 10 uM by Kinomescan method relative to control
[27] = target: Ribosomal protein S6 kinase alpha-3 (Homo sapiens) (UniProt P51812); assay: Inhibition of wild-type human partial length N-terminal RSK2 kinase domain 1 (M1 to D394 residues) expressed in mammalian expression system at 10 uM by Kinomescan method relative to control

Sequence of Receptor tyrosine-protein kinase erbB-4 (Homo sapiens) (Q15303 whole entry, the tested form may be a part, canonical isoform): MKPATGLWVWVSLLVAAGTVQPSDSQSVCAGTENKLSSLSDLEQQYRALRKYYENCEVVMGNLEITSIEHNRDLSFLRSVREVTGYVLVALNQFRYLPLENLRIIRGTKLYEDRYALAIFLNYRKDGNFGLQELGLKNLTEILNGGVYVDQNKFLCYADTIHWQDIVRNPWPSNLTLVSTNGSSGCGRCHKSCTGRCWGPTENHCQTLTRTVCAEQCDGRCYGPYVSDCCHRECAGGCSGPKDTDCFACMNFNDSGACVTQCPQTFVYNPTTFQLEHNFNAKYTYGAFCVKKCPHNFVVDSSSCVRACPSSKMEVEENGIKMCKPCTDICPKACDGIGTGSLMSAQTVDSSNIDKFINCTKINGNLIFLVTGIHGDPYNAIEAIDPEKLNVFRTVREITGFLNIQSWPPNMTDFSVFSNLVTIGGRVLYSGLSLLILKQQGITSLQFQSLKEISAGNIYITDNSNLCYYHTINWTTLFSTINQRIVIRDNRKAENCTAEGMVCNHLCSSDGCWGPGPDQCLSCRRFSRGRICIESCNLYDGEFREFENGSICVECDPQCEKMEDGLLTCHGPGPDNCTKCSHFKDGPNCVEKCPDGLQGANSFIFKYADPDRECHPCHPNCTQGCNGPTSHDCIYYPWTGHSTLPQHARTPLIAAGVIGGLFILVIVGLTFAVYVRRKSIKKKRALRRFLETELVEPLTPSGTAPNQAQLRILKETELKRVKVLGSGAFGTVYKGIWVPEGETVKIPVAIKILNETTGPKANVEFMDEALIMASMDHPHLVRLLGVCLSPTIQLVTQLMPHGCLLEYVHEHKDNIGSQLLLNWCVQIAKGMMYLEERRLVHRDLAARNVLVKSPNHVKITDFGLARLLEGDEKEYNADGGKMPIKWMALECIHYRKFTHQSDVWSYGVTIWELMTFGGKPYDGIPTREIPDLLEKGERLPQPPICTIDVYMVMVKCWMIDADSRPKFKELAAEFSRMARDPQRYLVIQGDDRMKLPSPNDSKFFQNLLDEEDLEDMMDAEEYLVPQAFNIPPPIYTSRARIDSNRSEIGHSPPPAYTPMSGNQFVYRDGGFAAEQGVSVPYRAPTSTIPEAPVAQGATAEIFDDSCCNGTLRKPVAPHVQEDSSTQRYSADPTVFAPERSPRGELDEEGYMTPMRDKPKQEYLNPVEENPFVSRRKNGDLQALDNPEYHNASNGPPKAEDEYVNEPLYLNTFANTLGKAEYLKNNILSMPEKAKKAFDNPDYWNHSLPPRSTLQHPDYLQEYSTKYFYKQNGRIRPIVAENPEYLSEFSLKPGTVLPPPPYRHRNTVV
Sequence of Calcium/calmodulin-dependent protein kinase type 1D (Homo sapiens) (Q8IU85 whole entry, looked up, the tested form may be a part): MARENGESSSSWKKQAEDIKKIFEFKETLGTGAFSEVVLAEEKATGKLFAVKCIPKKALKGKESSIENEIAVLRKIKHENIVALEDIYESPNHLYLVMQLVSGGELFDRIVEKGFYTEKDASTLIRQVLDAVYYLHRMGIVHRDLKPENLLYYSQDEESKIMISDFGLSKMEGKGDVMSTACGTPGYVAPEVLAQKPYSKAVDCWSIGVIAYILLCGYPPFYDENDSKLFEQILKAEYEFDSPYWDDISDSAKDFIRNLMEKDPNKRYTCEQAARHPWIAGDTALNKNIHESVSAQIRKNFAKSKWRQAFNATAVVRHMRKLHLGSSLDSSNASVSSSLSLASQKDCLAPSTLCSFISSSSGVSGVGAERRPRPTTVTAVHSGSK
Sequence of Muscle, skeletal receptor tyrosine-protein kinase (Homo sapiens) (O15146 whole entry, the tested form may be a part): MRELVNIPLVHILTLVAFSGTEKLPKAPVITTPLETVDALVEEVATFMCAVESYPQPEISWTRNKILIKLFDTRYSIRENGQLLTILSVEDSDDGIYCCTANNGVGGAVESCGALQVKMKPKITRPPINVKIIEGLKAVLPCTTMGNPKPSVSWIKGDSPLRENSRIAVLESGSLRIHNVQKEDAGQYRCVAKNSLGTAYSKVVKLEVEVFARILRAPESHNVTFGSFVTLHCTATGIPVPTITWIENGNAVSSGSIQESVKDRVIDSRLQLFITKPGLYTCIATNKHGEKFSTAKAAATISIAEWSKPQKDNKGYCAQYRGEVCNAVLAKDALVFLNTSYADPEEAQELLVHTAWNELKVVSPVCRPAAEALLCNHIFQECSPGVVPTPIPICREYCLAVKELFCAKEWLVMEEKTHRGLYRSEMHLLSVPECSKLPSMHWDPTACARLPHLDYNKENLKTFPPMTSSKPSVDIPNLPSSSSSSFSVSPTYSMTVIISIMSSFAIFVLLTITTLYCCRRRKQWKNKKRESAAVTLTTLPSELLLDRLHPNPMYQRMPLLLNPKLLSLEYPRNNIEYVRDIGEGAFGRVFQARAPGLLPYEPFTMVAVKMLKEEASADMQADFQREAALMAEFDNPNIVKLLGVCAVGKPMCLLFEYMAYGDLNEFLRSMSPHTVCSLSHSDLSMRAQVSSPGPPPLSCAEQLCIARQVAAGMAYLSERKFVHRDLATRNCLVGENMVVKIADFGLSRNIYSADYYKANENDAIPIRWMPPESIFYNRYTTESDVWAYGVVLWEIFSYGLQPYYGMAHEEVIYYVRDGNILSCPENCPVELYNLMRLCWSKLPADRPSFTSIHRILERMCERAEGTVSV
Sequence of Cyclin-dependent kinase 13 (Homo sapiens) (Q14004 whole entry, looked up, the tested form may be a part): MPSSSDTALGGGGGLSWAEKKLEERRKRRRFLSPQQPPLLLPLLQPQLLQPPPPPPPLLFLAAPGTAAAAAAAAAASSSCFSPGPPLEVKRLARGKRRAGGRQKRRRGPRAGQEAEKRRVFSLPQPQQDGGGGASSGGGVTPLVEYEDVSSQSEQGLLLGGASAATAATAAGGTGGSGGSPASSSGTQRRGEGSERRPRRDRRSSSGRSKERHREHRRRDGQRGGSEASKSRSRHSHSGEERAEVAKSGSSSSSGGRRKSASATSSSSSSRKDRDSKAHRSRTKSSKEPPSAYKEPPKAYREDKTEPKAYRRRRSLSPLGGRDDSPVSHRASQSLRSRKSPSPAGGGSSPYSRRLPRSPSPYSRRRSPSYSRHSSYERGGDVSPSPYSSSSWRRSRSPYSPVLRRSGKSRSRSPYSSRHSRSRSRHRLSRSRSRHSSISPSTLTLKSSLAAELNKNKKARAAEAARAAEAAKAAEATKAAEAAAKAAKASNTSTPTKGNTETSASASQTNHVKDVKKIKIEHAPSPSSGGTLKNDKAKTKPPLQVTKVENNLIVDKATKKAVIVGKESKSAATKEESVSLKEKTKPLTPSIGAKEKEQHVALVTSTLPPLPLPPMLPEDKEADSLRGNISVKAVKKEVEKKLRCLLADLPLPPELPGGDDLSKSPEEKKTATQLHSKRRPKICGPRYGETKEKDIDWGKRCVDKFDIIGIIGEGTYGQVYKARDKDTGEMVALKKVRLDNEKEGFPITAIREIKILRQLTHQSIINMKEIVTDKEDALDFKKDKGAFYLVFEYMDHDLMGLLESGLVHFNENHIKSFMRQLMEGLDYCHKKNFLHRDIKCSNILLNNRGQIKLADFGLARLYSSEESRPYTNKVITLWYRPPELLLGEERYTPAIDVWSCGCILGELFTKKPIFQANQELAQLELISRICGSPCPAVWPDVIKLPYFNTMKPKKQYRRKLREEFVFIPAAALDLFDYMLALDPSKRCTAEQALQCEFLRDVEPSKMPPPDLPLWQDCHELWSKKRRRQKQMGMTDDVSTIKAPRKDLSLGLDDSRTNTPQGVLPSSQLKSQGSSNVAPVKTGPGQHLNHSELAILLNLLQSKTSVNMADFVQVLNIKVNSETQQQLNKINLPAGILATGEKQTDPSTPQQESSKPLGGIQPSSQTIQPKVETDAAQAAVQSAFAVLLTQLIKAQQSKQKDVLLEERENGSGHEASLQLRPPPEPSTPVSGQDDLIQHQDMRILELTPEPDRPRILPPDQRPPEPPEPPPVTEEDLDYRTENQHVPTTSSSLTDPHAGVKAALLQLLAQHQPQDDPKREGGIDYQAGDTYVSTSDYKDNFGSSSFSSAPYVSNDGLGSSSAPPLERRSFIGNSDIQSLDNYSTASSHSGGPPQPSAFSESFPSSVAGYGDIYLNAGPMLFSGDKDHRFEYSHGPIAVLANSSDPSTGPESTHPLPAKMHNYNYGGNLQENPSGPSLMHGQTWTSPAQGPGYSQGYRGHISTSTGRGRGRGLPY
Sequence of Inhibitor of nuclear factor kappa-B kinase subunit alpha (Homo sapiens) (O15111 whole entry, the tested form may be a part): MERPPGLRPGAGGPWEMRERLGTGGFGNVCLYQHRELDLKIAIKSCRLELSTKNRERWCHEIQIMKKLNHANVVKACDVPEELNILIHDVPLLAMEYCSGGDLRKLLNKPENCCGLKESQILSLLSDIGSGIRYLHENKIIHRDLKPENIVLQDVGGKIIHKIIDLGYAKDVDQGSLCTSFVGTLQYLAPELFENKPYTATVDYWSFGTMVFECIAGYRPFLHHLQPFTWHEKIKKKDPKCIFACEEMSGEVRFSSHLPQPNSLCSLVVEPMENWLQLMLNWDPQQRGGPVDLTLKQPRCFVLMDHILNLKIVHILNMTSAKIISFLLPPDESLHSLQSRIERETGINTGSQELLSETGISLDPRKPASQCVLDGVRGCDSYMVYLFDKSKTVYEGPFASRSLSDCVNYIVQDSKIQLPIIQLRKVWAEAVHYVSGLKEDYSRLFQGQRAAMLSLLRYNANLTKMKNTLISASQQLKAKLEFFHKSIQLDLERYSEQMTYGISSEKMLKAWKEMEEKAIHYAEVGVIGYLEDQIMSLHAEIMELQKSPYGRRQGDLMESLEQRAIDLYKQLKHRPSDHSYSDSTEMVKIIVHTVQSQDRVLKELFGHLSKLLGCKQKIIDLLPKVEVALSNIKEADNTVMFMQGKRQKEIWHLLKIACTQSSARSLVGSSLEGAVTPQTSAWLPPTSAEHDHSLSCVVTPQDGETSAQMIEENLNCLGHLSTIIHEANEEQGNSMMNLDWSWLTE

Compound `O=C(Nc1cccc([C@@H]2CN(c3ncnc4[nH]ccc34)CCN2CCO)c1)Nc1c(F)cccc1N1CCCC1` has an inhibition [1] of 100%, an inhibition [2] of 98% and an inhibition [3] of 91%. The inhibition [4] was 100%, the inhibition [5] was 100% and the inhibition [6] was 100%. It also gave an inhibition [7] of 100%, an inhibition [8] of 96% and an inhibition [9] of 91%. The inhibition [10] was 100%.
`O=C(Nc1cccc([C@H]2CCCN(c3ncnc4[nH]ccc34)C2)c1)Nc1ccccc1N1CCCC1` gave an inhibition [11] of 27%, an inhibition [12] of 58% and an inhibition [13] of 65%. The inhibition [14] was 4.8%, the inhibition [15] was 89% and the inhibition [16] was 0.35%. The inhibition [17] was 46%, the inhibition [18] was 81% and the inhibition [19] was 42%. For the same compound, the inhibition [20] was 61%, the inhibition [21] was 69% and the inhibition [22] was 88%. For the same compound, the inhibition [23] was 99%, the inhibition [24] was 74% and the inhibition [25] was 63%. It also gave an inhibition [26] of 26% and an inhibition [27] of 57%.
